Where two headings read alike, the source gives them in different places.

The target in experiment [1] is T1, human D2S receptor (Homo sapiens, UniProt P14416).
T1 construct: expressed in transfected cells; host or cells: CHO-K1
Briefly: Competition radioligand binding at human D2 receptor ([3H]-Spiperone, CHO-K1 membranes). The following applies: mean ± SEM of 2–3 independent experiments in duplicate; read-out: huD2 Ki. The method, then: Experiments were carried out in membranes isolated from a CHO-K1 cell line stably overexpressing the cloned human D2S receptor.
(§1) Competition radioligand binding assays were performed on membranes isolated from cell lines stably expressing the cloned human receptors, which were either in-house or commercially available. […] Assays (250 μL assay final volume) were carried out in 96-well polypropylene plates in duplicate. In short, the suspension of appropriate membrane protein was incubated in an assay buffer with the addition of the corresponding radioligand, in the presence or absence of a tested compound or reference compound. […] After the incubation, the content of the test plates was transferred to 96 well plates with glass fiber filter GF/B or GF/C, previously pretreated with polyethyleneimine (PEI), and rapidly filtered with the use of vacuum, followed by rapid washing with cold (4 °C) wash buffer. After that, the filter plates were dried at 60 °C for 1 h. Then, 30 μL of liquid scintillation cocktail (UniverSol-ES, MP Biomedicals, Solon, OH, USA) was added to each well of the filter plates, and the radioactivity was measured in a MicroBeta^2 microplate scintillation counter (PerkinElmer, Madrid, Spain).
(§2) Competition binding curves were fitted to a one-site competition binding model (Fit Ki) with the use of Prism 7 software (GraphPad, San Diego, CA, USA). logKi (log of the equilibrium dissociation constant (Ki)) values were obtained after constraining the concentration of radioligand employed in the assay and its dissociation constant (KD) as determined in saturation radioligand binding assays.

Experiment [2] concerns the target T2, human dopamine D1 receptor (Homo sapiens, UniProt P21728).
T2 construct: expressed in transfected cells; host or cells: CHO-K1
As to the kind of experiment: Competition radioligand binding at human D1 receptor ([3H]-SCH-23390). Conditions: mean ± SEM of 2 independent experiments, read-out: huD1 % inh. at 10 µM. The method, then:
as §1, §2

Experiment [3] concerns the target T3, human dopamine D3 receptor (Homo sapiens, UniProt P35462).
T3 construct: expressed in transfected cells; host or cells: CHO-K1
As to the kind of experiment: Competition radioligand binding at human D3 receptor ([3H]-Spiperone). The following applies: mean ± SEM of 2 independent experiments, read-out: huD3 % inh. at 10 µM. How it is done:
as §1, §2

Experiment [4] concerns the target T4, human 5-HT1A receptor (Homo sapiens, UniProt P08908).
T4 construct: expressed in transfected cells; host or cells: HEK293
T4 sequence (P08908 1-422): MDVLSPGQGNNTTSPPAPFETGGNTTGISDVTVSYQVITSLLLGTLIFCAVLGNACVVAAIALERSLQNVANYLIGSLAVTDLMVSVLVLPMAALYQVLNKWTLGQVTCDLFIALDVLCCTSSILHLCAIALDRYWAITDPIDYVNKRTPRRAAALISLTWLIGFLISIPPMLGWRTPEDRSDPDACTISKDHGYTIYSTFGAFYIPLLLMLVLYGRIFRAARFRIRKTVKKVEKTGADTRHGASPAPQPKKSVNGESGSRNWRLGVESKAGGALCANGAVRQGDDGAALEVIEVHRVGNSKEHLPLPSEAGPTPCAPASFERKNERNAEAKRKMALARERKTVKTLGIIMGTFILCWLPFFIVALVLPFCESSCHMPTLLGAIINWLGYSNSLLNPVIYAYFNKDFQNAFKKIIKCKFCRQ
As to the kind of experiment: Competition radioligand binding at human 5-HT1A receptor ([3H]-8-OH-DPAT). The following applies: mean ± SEM of 2 independent experiments, read-out: hu5-HT1A % inh. at 10 µM. The method, then:
as §1, §2

In experiment [5] the target is T5, human 5-HT2A receptor (Homo sapiens, UniProt P28223).
T5 construct: expressed in transfected cells; host or cells: CHO-K1
As to the kind of experiment: Competition radioligand binding at human 5-HT2A receptor ([3H]-Ketanserin). The following applies: mean ± SEM of 2 independent experiments, read-out: hu5-HT2A % inh. at 10 µM. The method, then: as §1, §2

For experiment [6], the target named is T6, human 5-HT7 receptor (Homo sapiens, UniProt P34969).
T6 construct: expressed in transfected cells; host or cells: HEK293
Briefly: Competition radioligand binding at human 5-HT7 receptor ([3H]-SB269970). Conditions: mean ± SEM of 2 independent experiments, read-out: hu5-HT7 % inh. at 10 µM. How it is done:
as §1, §2

Experiment [7] concerns the target T1, human D2S receptor. Briefly: Functional assays of cAMP signalling at D2 receptors (CHO-K1 cells, HTRF). Format: cell-based. How it is done:
The assessment of the activity of selected compounds at the D2 receptor was performed in cell-based functional assays of cAMP signaling, in the CHO-K1 cell line with stable expression of the cloned human D2S receptor, which was also employed for the radioligand binding assays. For D2 receptor antagonism, test compounds were dispensed into an empty 96-well plate (Isoplate-96 Black Frame White Well, PerkinElmer España SL, Madrid, Spain) with the use of the dispensing noncontact Echo 550 acoustic liquid handler (LABCYTE Inc., San Jose, CA, USA). Compounds were handled from frozen 10^−2 M stock solutions in 100% DMSO, from which serial 1000× solutions were prepared in 100% DMSO at the time of the assay, keeping vehicle concentration (0.1% DMSO) constant in the assay. Vials containing viable frozen cells were quickly thawed in a 37 °C water bath and cells were seeded into the assay plate in assay buffer (kit stimulation buffer containing 500 µM 3-isobutyl-1-methylxanthine (IBMX), which was directly added to the buffer as powder). […] After 10 min incubation at 37 °C, 10 µM forskolin was added to the corresponding wells, and incubation was continued for 5 min. After this time, cellular cAMP levels were quantified using the homogeneous time-resolved fluorescence (HTRF)-based cAMP Gs dynamic kit (Cisbio, Bioassays, Codolet, France) according to the manufacturer’s protocol. […] Basal cAMP levels were determined in control wells in the absence of compound, agonist, and forskolin.

Experiment [8] addresses T1, human D2S receptor. Conditions: radioligand binding; ref [10]; read-out: huD2 Ki; cited from earlier work.
The target in experiment [9] is T2, human dopamine D1 receptor. Conditions: ref [10]; cited from earlier work.
The target in experiment [10] is T3, human dopamine D3 receptor. Conditions: ref [10]; cited from earlier work.
Experiment [11] has as its target T4, human 5-HT1A receptor. The following applies: ref [10]; cited from earlier work.
Experiment [12] concerns the target T5, human 5-HT2A receptor. The following applies: ref [10]; cited from earlier work.

T1 sequence (P14416 1-414 isoform P14416-2): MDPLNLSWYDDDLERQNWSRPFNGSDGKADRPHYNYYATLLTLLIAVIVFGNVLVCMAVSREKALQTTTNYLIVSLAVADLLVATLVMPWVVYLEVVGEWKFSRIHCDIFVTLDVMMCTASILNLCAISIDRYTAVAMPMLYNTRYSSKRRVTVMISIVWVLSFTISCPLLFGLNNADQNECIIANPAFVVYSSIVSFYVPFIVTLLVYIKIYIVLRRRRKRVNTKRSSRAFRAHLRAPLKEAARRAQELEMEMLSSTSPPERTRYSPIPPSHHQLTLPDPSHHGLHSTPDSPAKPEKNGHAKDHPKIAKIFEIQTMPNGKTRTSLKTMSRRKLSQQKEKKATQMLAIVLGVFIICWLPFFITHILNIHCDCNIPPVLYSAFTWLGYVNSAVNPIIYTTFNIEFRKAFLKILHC
T5 sequence (P28223 whole entry): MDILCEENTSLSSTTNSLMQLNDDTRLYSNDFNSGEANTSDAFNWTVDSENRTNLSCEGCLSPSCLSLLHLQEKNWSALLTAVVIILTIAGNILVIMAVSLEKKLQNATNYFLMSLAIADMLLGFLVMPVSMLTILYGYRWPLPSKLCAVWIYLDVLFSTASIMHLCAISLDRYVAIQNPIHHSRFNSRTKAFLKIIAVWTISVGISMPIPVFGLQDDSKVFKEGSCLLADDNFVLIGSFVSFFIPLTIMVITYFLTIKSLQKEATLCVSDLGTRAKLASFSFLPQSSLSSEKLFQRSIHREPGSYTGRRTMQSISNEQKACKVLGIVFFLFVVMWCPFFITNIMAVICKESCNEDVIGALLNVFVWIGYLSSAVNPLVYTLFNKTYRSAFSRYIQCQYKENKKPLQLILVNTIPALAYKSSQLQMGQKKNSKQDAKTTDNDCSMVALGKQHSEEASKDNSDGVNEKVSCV
T2 sequence (P21728 whole entry): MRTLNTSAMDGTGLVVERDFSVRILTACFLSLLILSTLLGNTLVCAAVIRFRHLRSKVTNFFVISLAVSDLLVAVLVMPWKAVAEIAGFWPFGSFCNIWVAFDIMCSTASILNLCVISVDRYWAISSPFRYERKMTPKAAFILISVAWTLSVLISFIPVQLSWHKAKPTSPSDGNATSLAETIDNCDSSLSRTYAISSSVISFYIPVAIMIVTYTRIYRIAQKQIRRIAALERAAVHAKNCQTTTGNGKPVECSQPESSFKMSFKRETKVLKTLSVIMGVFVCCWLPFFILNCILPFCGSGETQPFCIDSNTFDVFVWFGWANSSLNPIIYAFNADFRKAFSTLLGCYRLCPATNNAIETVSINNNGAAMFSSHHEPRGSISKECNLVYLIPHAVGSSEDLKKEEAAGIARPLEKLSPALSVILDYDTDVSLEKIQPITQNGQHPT
T3 sequence (P35462 whole entry): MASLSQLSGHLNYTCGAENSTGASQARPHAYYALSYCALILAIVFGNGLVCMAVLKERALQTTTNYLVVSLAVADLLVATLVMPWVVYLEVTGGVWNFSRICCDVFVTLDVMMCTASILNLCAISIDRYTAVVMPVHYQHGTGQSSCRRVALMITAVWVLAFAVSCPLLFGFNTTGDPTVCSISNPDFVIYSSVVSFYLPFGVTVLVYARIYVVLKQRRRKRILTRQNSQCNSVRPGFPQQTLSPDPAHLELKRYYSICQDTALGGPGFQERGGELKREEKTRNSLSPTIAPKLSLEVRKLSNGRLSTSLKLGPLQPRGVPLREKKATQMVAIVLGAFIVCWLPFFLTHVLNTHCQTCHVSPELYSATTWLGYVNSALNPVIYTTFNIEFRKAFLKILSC
T6 sequence (P34969 whole entry): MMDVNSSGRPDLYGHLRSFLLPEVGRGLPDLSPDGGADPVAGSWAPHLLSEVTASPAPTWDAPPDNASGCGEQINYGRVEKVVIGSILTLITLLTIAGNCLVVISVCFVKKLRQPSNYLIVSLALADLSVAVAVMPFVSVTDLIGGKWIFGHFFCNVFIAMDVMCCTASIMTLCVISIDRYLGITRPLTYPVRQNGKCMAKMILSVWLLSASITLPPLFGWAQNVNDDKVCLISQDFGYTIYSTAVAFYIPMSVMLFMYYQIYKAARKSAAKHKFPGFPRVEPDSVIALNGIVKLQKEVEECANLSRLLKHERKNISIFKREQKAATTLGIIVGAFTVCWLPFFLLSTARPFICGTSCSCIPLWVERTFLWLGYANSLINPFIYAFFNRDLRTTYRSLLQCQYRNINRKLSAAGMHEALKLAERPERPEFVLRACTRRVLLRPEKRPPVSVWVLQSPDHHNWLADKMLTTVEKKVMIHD

In the case of `O=C(CCN1C(=O)CSc2ccccc21)Nc1ccc([N+](=O)[O-])cc1` [Compound 23, N-(4-Nitrophenyl)-3-(3-oxo-2,3-dihydro-4H-benzo[b][1,4]thiazin-4-yl)propanamide], in [1], the Ki was determined as 724 ± 114 nM. Besides, the inhibition at 10 µM came out at 12 ± 2% in experiment [2]; 4 ± 3% in experiment [3]; 22 ± 3% in [4]; 23 ± 3% in experiment [5]; 0% in [6]. In addition, the Kb in [7] (antagonism of 1 µM dopamine response, Leff-Dougall variant of Cheng-Prusoff, read-out: D2 Signalling (cAMP) Kb (Mean)) stood at 113 nM. Also, the “efficacy at D2 receptor (mode of action)” value in experiment [7] (cAMP signaling, CHO-K1 cells) was “antagonism”.
For the molecule `O=C(CCN1C(=O)CSc2ccccc21)Nc1ccc(C(F)(F)F)cc1` [Compound D2AAK2], in experiment [8], the Ki was 321 ± 25 nM. For the same molecule, the “activity at dopamine D1 receptor” value in [9] was “not active”. Moreover, in [10], the “activity at dopamine D3 receptor” value is reported as “not active”. For the same molecule, the “activity at serotonin 5-HT1A receptor” value in experiment [11] is “not active”. Further, the “activity at serotonin 5-HT2A receptor” value in [12] is on record as “not active”.

The values above are taken from paper PMC10223470 (Molecules, 2023).
